Target: Phosphoglycerate kinase (Trypanosoma brucei)
Assay: evaluated for the inhibition of Trypanosoma brucei Phosphoglycerate kinase (PGK)

SMILES	IC50 [µM]
CCCCNc1nc(N)c2ncn(C3O[C@H](CO)[C@@H](O)[C@H]3O)c2n1 (stereo partly specified)	1500
OC[C@H]1OC(n2cnc3c(NCCc4ccc(O)cc4)nc(NCCc4ccccc4)nc32)[C@H](O)[C@@H]1O (stereo partly specified)	100
NCCNc1ncnc2c1ncn2C1O[C@H](CO)[C@@H](O)[C@H]1O (stereo partly specified)	2500
C=CCNc1nc(N)nc2c1ncn2C1O[C@H](CO)[C@@H](O)[C@H]1O (stereo partly specified)	3000
Nc1nc(NCc2ccco2)nc2c1ncn2C1O[C@H](CO)[C@@H](O)[C@H]1O (stereo partly specified)	1200
Nc1nc(NCCc2ccc(Cl)cc2)c2ncn(C3O[C@H](CO)[C@@H](O)[C@H]3O)c2n1 (stereo partly specified)	1400
Nc1nc(NCc2ccccc2)c2ncn(C3O[C@H](CO)[C@@H](O)[C@H]3O)c2n1 (stereo partly specified)	600
CCCCCNc1ncnc2c1ncn2[C@@H]1O[C@H](CO)[C@@H](O)[C@H]1O	3000
Nc1nc(NC2CCCC2)c2ncn(C3O[C@H](CO)[C@@H](O)[C@H]3O)c2n1 (stereo partly specified)	1500
COc1ccccc1CCNc1nc(N)nc2c1ncn2C1O[C@H](CO)[C@@H](O)[C@H]1O (stereo partly specified)	1800
COc1cc(CCNc2nc(N)nc3c2ncn3C2O[C@H](CO)[C@@H](O)[C@H]2O)ccc1O (stereo partly specified)	1500
COc1ccccc1CNc1nc(N)c2ncn(C3O[C@H](CO)[C@@H](O)[C@H]3O)c2n1 (stereo partly specified)	1400
Nc1nc(NCC2CCCCC2)c2ncn(C3O[C@H](CO)[C@@H](O)[C@H]3O)c2n1 (stereo partly specified)	2500
Cc1ccc(CNc2nc(N)c3ncn(C4O[C@H](CO)[C@@H](O)[C@H]4O)c3n2)cc1 (stereo partly specified)	1500
CC(Nc1nc(N)nc2c1ncn2C1O[C@H](CO)[C@@H](O)[C@H]1O)c1ccccc1 (stereo partly specified)	2900
Nc1nc(NC2CCCCCC2)nc2c1ncn2C1O[C@H](CO)[C@@H](O)[C@H]1O (stereo partly specified)	3000
Nc1nc(NCCCCNc2nc(N)nc3c2ncn3C2O[C@H](CO)[C@@H](O)[C@H]2O)c2ncn(C3O[C@@H](CO)[C@H](O)[C@@H]3O)c2n1 (stereo partly specified)	750
CCCNc1nc(N)c2ncn([C@@H]3O[C@H](CO)[C@@H](O)[C@H]3O)c2n1	1500
CCNc1nc(N)nc2c1ncn2C1O[C@H](CO)[C@@H](O)[C@H]1O (stereo partly specified)	3500
Nc1nc(NCc2cccc(Cl)c2)nc2c1ncn2C1O[C@H](CO)[C@@H](O)[C@H]1O (stereo partly specified)	800
COc1ccc(CCNc2nc(N)nc3c2ncn3C2O[C@H](CO)[C@@H](O)[C@H]2O)cc1O (stereo partly specified)	850

SMILES	IC50 [µM]
Cc1ccccc1CNc1nc(N)c2ncn(C3O[C@H](CO)[C@@H](O)[C@H]3O)c2n1 (stereo partly specified)	1500
Nc1nc(NCCc2ccc(O)cc2)c2ncn(C3O[C@H](CO)[C@@H](O)[C@H]3O)c2n1 (stereo partly specified)	130
Nc1nc(NCCCc2ccccc2)nc2c1ncn2C1O[C@H](CO)[C@@H](O)[C@H]1O (stereo partly specified)	1800
Nc1nc(NCCc2ccccc2Cl)c2ncn(C3O[C@H](CO)[C@@H](O)[C@H]3O)c2n1 (stereo partly specified)	1900
Nc1nc(NCCc2cccc(O)c2)c2ncn(C3O[C@H](CO)[C@@H](O)[C@H]3O)c2n1 (stereo partly specified)	250
Nc1nc(NCc2ccc(Cl)cc2)nc2c1ncn2C1O[C@H](CO)[C@@H](O)[C@H]1O (stereo partly specified)	1400
CCCNc1nc(N)nc2c1ncn2C1O[C@H](CO)[C@@H](O)[C@H]1O (stereo partly specified)	3000
CCCCCNc1nc(N)nc2c1ncn2C1O[C@H](CO)[C@@H](O)[C@H]1O (stereo partly specified)	2000
Cc1cccc(CNc2nc(N)c3ncn(C4O[C@H](CO)[C@@H](O)[C@H]4O)c3n2)c1 (stereo partly specified)	1500
Nc1nc(NCc2cccc3ccccc23)c2ncn(C3O[C@H](CO)[C@@H](O)[C@H]3O)c2n1 (stereo partly specified)	1900
Nc1ccc(CCNc2nc(N)nc3c2ncn3C2O[C@H](CO)[C@@H](O)[C@H]2O)cc1 (stereo partly specified)	250
Cc1cccc(CNc2nc(N)nc3c2ncn3C2O[C@H](CO)[C@@H](O)[C@H]2O)c1 (stereo partly specified)	400
C#CCNc1nc(N)nc2c1ncn2C1O[C@H](CO)[C@@H](O)[C@H]1O (stereo partly specified)	1500
Nc1nc(NCc2ccccc2Cl)nc2c1ncn2C1O[C@H](CO)[C@@H](O)[C@H]1O (stereo partly specified)	2000
COc1ccc(CCNc2nc(N)nc3c2ncn3C2O[C@H](CO)[C@@H](O)[C@H]2O)cc1 (stereo partly specified)	1500
Nc1nc(NCCc2ccccc2)c2ncn(C3O[C@H](CO)[C@@H](O)[C@H]3O)c2n1 (stereo partly specified)	200
Nc1ccc(CCNc2nc(N)c3ncn(C4O[C@H](CO)[C@@H](O)[C@H]4O)c3n2)cc1 (stereo partly specified)	500
COc1cccc(CCNc2nc(N)nc3c2ncn3C2O[C@H](CO)[C@@H](O)[C@H]2O)c1 (stereo partly specified)	1900
Nc1nc(NCCc2ccc(O)c(O)c2)c2ncn(C3O[C@H](CO)[C@@H](O)[C@H]3O)c2n1 (stereo partly specified)	250
Nc1nc(NCCCNc2nc(N)nc3c2ncn3C2O[C@H](CO)[C@@H](O)[C@H]2O)c2ncn(C3O[C@@H](CO)[C@H](O)[C@@H]3O)c2n1 (stereo partly specified)	50
Nc1nc(NCc2ccccc2)nc2c1ncn2C1O[C@H](CO)[C@@H](O)[C@H]1O (stereo partly specified)	3500

SMILES	IC50 [µM]
COc1ccc(CNc2nc(N)c3ncn(C4O[C@H](CO)[C@@H](O)[C@H]4O)c3n2)cc1 (stereo partly specified)	1000
Nc1nc(NCCNc2nc(N)nc3c2ncn3C2O[C@H](CO)[C@@H](O)[C@H]2O)c2ncn(C3O[C@@H](CO)[C@H](O)[C@@H]3O)c2n1 (stereo partly specified)	500
NCCCNc1nc(N)nc2c1ncn2C1O[C@H](CO)[C@@H](O)[C@H]1O (stereo partly specified)	4000
CCCCNc1nc(N)nc2c1ncn2C1O[C@H](CO)[C@@H](O)[C@H]1O (stereo partly specified)	900
Nc1nc(NC2CCCCCC2)c2ncn(C3O[C@H](CO)[C@@H](O)[C@H]3O)c2n1 (stereo partly specified)	2500
Nc1nc(NCC(O)c2ccccc2)nc2c1ncn2[C@@H]1O[C@H](CO)[C@@H](O)[C@H]1O (stereo partly specified)	1400
Nc1nc(NCC2CCCO2)nc2c1ncn2C1O[C@H](CO)[C@@H](O)[C@H]1O (stereo partly specified)	800
Nc1nc(NCCCc2ccccc2)c2ncn(C3O[C@H](CO)[C@@H](O)[C@H]3O)c2n1 (stereo partly specified)	4000
Cc1ccc(CCNc2nc(N)nc3c2ncn3C2O[C@H](CO)[C@@H](O)[C@H]2O)cc1 (stereo partly specified)	2000
Nc1nc(NCCc2ccc(Cl)cc2Cl)nc2c1ncn2C1O[C@H](CO)[C@@H](O)[C@H]1O (stereo partly specified)	600
Nc1nc(NCCc2cccc(Cl)c2)c2ncn(C3O[C@H](CO)[C@@H](O)[C@H]3O)c2n1 (stereo partly specified)	1200
Nc1nc(NCc2ccco2)c2ncn(C3O[C@H](CO)[C@@H](O)[C@H]3O)c2n1 (stereo partly specified)	1500
CC(CNc1nc(N)c2ncn(C3O[C@H](CO)[C@@H](O)[C@H]3O)c2n1)c1ccccc1 (stereo partly specified)	3500
Nc1nc(NCCc2ccccc2Cl)nc2c1ncn2C1O[C@H](CO)[C@@H](O)[C@H]1O (stereo partly specified)	2200
CC(CNc1nc(N)nc2c1ncn2C1O[C@H](CO)[C@@H](O)[C@H]1O)c1ccccc1 (stereo partly specified)	2900
OC[C@H]1OC(n2cnc3c(NCCc4ccccc4)nc(NCCc4ccccc4)nc32)[C@H](O)[C@@H]1O (stereo partly specified)	30
Nc1nc(NCCc2ccc(O)cc2)nc2c1ncn2C1O[C@H](CO)[C@@H](O)[C@H]1O (stereo partly specified)	500
Nc1nc(NCCCCCNc2nc(N)nc3c2ncn3C2O[C@H](CO)[C@@H](O)[C@H]2O)c2ncn(C3O[C@@H](CO)[C@H](O)[C@@H]3O)c2n1 (stereo partly specified)	1000
OC[C@H]1OC(n2cnc3c(NCCc4ccccc4)nc(NCCc4ccc(O)cc4)nc32)[C@H](O)[C@@H]1O (stereo partly specified)	100

Source: ChEMBL document CHEMBL1133593 (J Med Chem, 2000)
